According to patent publication US20040166092A1, “Use of viral vectors and charged molecules for gene therapy” (priority 1999, published 2004):

Assays:
[1] = system: CT-26 cells; assay: CT-26 morphology and cell growth in culture; format: cell-based; details: 72 hours
Method: To better understand the in vivo effects of dextran sulfate or dextran in combination with HSV, the effects of dextran sulfate on cell morphology and cell proliferation were evaluated in a cell culture model. CT-26 cells were treated with 100 μg/ml of dextran sulfate or were left untreated. After 48 hours, cell numbers and morphology were examined (FIG. 15). […] In the presence of dextran sulfate, CT-26 cells appeared more evenly spread across tissue culture dishes (panel B) as compared to the “clumped” appearance of CT-26 cells in the absence of dextran sulfate (panel A).
The effect of dextran sulfate, acyclovir, or a combination of both dextran and acyclovir were also examined for their effects on cell growth in vitro. Cultured CT-26 cells were administered dextran sulfate (100 μg/ml), acyclovir (2 mg/ml), both dextran sulfate and acyclovir, or were left untreated (control). CT-26 cells were counted at various time points following addition each formulation.

[2] = system: CT-26 flank tumors; assay: CT-26 flank tumor model; format: in vivo, mouse; details: acyclovir 2 mg/ml with dextran sulfate 100 μg/ml and 1×10^7 pfu NV1020
Method: Different modes of delivery were also examined to determine the efficacy of systemic delivery of HSV on tumor growth. Flank tumors were established in mice by subcutaneous injection of CT-26 cancer cells. The mice were then administered 1×10^7 pfu of NV1020 either intratumorally or systemically by tail vein. Tumor growth rates were then assessed by measuring the tumor volume biweekly (FIG. 8).
Mice were anesthetized using ketamine (70 mg/kg) and xylazine (10 mg/kg). CT-26 cells (5×10^4 cells resuspended in 100 μl of PBS) were injected subcutaneously into the right flank of each mouse, using a 26-gauge needle. The cells formed a tumor, which was allowed to grow to a size of approximately 100 to 150 mm^3. Injections of the desired therapy were then initiated. Tumor volumes were generally measured biweekly. The animals were sacrificed once the tumor volume reached 1500 mm^3.
Tail vein administration of the desired therapy was carried out using techniques commonly known in the art.

Structure (SMILES): Nc1nc2c(ncn2COCCO)c(=O)[nH]1 [acyclovir]
- growth of the cells (number of cells/ml) compared to untreated cells ([1]; acyclovir 2 mg/ml together with dextran sulfate 100 μg/ml): did not vary significantly
- growth of the cells (number of cells/ml) compared to untreated cells ([1]; acyclovir 2 mg/ml): did not vary significantly
- tumor growth [2]: reduced tumor growth
